From ChEMBL document CHEMBL1123349, “Analogues of 1,3-dipropyl-8-phenylxanthine: enhancement of selectivity at A1-adenosine receptors by aryl substituents” (J Med Chem, 1986)
Several values for one entry are separate records, joined by “and”; a condition that tells them apart may be missing. Equal values may be shown once.

Legend:
[1] = target: Adenosine receptors; A1 & A2 (Rattus norvegicus) (UniProt P29276+P25099+P30543); experiment: Selectivity ratio was expressed as the ratio of binding affinity towards Adenosine A2 receptor to that of Adenosine A1 receptor in rat
[2] = target: Adenosine A2 receptor (Rattus norvegicus, UniProt P29276+P30543); experiment: Binding affinity against A2 adenosine receptors of the central nervous system; type: protein assay
[3] = target: T1, Adenosine receptor A1 (Rattus norvegicus, UniProt P25099); experiment: Binding affinity against A1 adenosine receptors of the central nervous system
T1 sequence (P25099 whole entry): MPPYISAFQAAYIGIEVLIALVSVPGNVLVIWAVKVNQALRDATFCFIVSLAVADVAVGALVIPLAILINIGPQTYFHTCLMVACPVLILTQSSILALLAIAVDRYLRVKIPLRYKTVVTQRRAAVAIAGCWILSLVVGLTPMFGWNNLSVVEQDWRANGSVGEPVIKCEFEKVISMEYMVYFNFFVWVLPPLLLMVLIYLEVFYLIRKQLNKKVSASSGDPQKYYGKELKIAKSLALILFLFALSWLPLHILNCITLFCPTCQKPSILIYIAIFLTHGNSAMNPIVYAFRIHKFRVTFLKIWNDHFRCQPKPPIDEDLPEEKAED

Row | SMILES | Ratio [1] | Ki [2] | Ki [3]
1 | CCCn1c(=O)c2nc(-c3ccc(S(=O)(=O)O)cc3)[nH]c2n(CCC)c1=O | 3.4 | 710 nM | 
2 | CCCn1c(=O)c2[nH]c(-c3ccc(F)cc3F)nc2n(CCC)c1=O |  |  | 51 nM
3 | CCCn1c(=O)c2nc(-c3ccc(OC)cc3)[nH]c2n(CCC)c1=O |  |  | 14 nM
4 | CCCn1c(=O)c2nc(-c3ccc(Cl)cc3OC)[nH]c2n(CCC)c1=O | > 7 | > 3000 nM | 420 nM
5 | CCCn1c(=O)c2nc(-c3ccc(C(N)=O)cc3)[nH]c2n(CCC)c1=O |  | 72 nM and 55 nM | 7 nM and 25 nM
6 | CCCn1c(=O)c2nc(-c3cccc(O)c3O)[nH]c2n(CCC)c1=O | 6.4 | 210 nM | 33 nM
7 | CCCn1c(=O)c2nc(-c3ccc(OC(C)=O)cc3)[nH]c2n(CCC)c1=O | 1.5 | 12 nM | 8 nM
8 | CCCn1c(=O)c2nc(-c3ccc(S(N)(=O)=O)cc3)[nH]c2n(CCC)c1=O | 15 | 115 nM | 8.5 nM
9 | CCCn1c(=O)c2nc(-c3ccc(O)c(Cl)c3)[nH]c2n(CCC)c1=O | 3.9 | 140 nM | 
10 | CCCn1c(=O)c2[nH]c(-c3ccc(OC)cc3O)nc2n(CCC)c1=O | 89 | 980 nM | 11 nM
11 | CCCn1c(=O)c2nc(-c3ccc(F)cc3F)[nH]c2n(CCC)c1=O | 5.9 | 290 nM | 
12 | CCCn1c(=O)c2nc(-c3ccc(N)cc3)[nH]c2n(CCC)c1=O | 1 | 28 nM | 27 nM
13 | CCCn1c(=O)c2nc(-c3ccc(Cl)cc3N)[nH]c2n(CCC)c1=O | 400 | 1000 nM | 
14 | CCCn1c(=O)c2[nH]c(-c3ccc(O)cc3O)nc2n(CCC)c1=O |  |  | 15 nM
15 | CCCn1c(=O)c2nc(-c3cc(O)ccc3O)[nH]c2n(CCC)c1=O | 9.7 | 3500 nM | 360 nM
16 | CCCn1c(=O)c2nc(-c3ccc(N(C)C)cc3)[nH]c2n(CCC)c1=O | 2.2 | 100 nM | 45 nM
17 | CCCn1c(=O)c2[nH]c(-c3ccc(O)c(Cl)c3)nc2n(CCC)c1=O |  |  | 36 nM
18 | CCCn1c(=O)c2nc(-c3ccc(N)cc3N)[nH]c2n(CCC)c1=O | 2.8 | 13 nM | 4.6 nM
